# In paper PMC4669759 (Cell Death & Disease, 2015):
# Assays:
# Format in all cases: cell-based
# BCL-2–BAD complexes = target: T1, BCL-2–BAD complexes (Homo sapiens, UniProt P10415); assay: Live cell redistribution assay, eGFP-BCL-2 and mCherry-BAD, T-REx-293 cells; conditions: 10 μM, 300 min
# T1 construct: expressed in transfected cells; host or cells: T-REx-293, bicistronic expression module integrated at a single genomic site
# Text: To further rule out potential artifacts associated with lysate detergents that can influence interactions between BCL-2 family proteins,[47] we employed a recently described real-time imaging method to assess the effects on BCL-2 family complexes in live cells.[48] Briefly, interacting pairs of BCL-2 family proteins are expressed as fluorescent fusion proteins at stoichiometric levels from a bicistronic expression module integrated into a single site of the genome in T-REx-293 cells. […]
# Figure 3 A-1210477 inhibits MCL-1-BIM complexes in live cells. […] The decrease in amount of mCherry-BH3 protein localized to the mitochondria was quantified as a function of time as described in the Materials and Methods, normalized to DMSO control, and fitted to a single exponential decay. Each data point represents the mean change in intensity calculated from 10 fields of view, with error bars indicating the S.E.M. (b) T-REx-293 cells stably expressing eGFP-MCL-1(3B) and mCherry-BIMS(2A)ΔC were treated with 50 μM ABT-737 or increasing concentrations (1–25 μM) A-1210477 for 100 min. The decrease in amount of mCherry-BIMS(2A)ΔC localized to the mitochondria was quantified as in panel (a). (c) Representative fluorescence microscopic images of T-REx-293 cells stably expressing eGFP-BCL-2 family and interacting mCherry-BH3-only proteins before and after 300 min of treatment with 10 μM A-1210477 or (d) ABT-737. […]
# Bak-/- Bax-/- MEFs = assay: Cell viability, Bak-/- Bax-/- murine embryonic fibroblasts; conditions: 48 h
# Protocol: Supplementary Figure 4. […] Murine embryonic fibroblasts (MEFs) lacking Bak and Bax were treated with increasing concentrations of A-1155905, A-1208746, A-1210477, staurosporine or bortezomib for 48 h before assessing cell viability. Data represent the mean of triplicate experiments and error bars indicate the standard error of the mean.
# NOXA = NOXA levels by immunoblotting in HCC-1806 cells; conditions: 8 h, up to 20 μM
# Protocol: Figure 1 MCL-1 levels are elevated in cancer cells after treatment with MCL-1-binding small molecules. (a) H929 multiple myeloma cells were treated for 4 h with 10 μM A-1210477 before immunopreciptating MCL-1. […] A control H929 lysate was run in lane 1, and an immunoprecipitation with a non-specific antibody (Ig) was run in lane 2. The positions of molecular weight markers (specified in kiloDaltons) are indicated on the left. (b) HCC-1806 breast cancer cells were incubated with increasing concentrations of A-1210477 (0.1, 0.5, 1, 5, 10, 15, or 20 μM) or bortezomib (2, 10, or 50 nM) for 8 h before assessing MCL-1 and NOXA levels by immunoblotting. β-Actin was probed as a protein loading control. The lower graph depicts reverse transcriptase-PCR quantification of MCL1 mRNA from HCC-1806 cells treated for 8 h with similar concentrations of A-1210477. (c) HCC-1806 cells were incubated with increasing concentrations (0.1, 0.5, 1, 5, 10, and 20 μM) of A-954248, A-962653, or A-1248767 for 24 h before assessing MCL-1 and BCL-XL levels by immunoblotting. β-Actin was probed as a protein loading control
# Cells were scraped into cold PBS, pelleted, and then resuspended in 100–200 μl ice-cold insect cell lysis buffer supplemented with protease inhibitors (BD Biosciences Pharmingen, San Diego, CA, USA). Cells were lysed by sonication, and the debris was cleared in a microcentrifuge. […]
# T1 sequence (P10415 whole entry, one chain of several): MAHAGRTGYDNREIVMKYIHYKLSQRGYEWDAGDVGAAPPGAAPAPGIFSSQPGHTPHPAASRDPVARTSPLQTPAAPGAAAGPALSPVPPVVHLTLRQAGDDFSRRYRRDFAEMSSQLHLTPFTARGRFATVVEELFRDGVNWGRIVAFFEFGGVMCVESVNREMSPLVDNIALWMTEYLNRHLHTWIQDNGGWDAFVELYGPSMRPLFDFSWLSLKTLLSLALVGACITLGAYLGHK
smiles,measurement,setting,value
Cc1nn(C)c(COc2ccc(N3CCN(S(=O)(=O)N(C)C)CC3)cc2)c1-c1cccc2c(CCCOc3cccc4ccccc34)c(C(=O)O)n(CCN3CCOCC3)c12 [A-1210477],redistribution of mCherry-BAD associated with BCL-2,BCL-2–BAD complexes,no effect
same,killing of Bak-/- Bax-/- MEFs,Bak-/- Bax-/- MEFs,do not Kill
same,effect on NOXA levels,NOXA,no effect
